Patent US20240158446A1, “CYCLIC COMPOUND HAVING SELECTIVE INHIBITORY ACTION ON KRAS OVER HRAS AND NRAS” (CHUGAI SEIYAKU KABUSHIKI KAISHA, priority 2021, published 2024)

Legend:
[1] = target: GDP-bound NRAS wild-type protein (Homo sapiens, UniProt P01111); assay: Binding to NRAS by surface plasmon resonance (SPR), Single Cycle Kinetics; conditions: for NRAS/KRAS (ratio of KD value for NRAS to KD value for KRAS): SPR, GDP-bound NRAS wild-type protein vs GDP-bound KRAS wild-type protein; for NRAS/KRAS (ratio of KD value with respect to GDP-bound NRAS wild-type protein to KD value with respect to KRAS): SPR KD ratio NRAS/KRAS, class symbols
Sequence of GDP-bound NRAS wild-type protein (P01111 whole entry): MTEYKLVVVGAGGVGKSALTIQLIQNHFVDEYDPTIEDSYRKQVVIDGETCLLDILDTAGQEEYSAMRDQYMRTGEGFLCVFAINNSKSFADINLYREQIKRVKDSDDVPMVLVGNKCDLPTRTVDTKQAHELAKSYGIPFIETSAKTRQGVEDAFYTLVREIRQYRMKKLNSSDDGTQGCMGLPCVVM

[2] = target: GDP-bound HRAS wild-type protein (Homo sapiens, UniProt P01112); assay: Binding to HRAS by surface plasmon resonance (SPR), Single Cycle Kinetics; conditions: for HRAS/KRAS (ratio of KD value for HRAS to KD value for KRAS): SPR, GDP-bound HRAS wild-type protein vs GDP-bound KRAS wild-type protein; for HRAS/KRAS (ratio of KD value with respect to GDP-bound HRAS wild-type protein to KD value with respect to KRAS): SPR KD ratio HRAS/KRAS, class symbols
Sequence of GDP-bound HRAS wild-type protein (P01112 whole entry): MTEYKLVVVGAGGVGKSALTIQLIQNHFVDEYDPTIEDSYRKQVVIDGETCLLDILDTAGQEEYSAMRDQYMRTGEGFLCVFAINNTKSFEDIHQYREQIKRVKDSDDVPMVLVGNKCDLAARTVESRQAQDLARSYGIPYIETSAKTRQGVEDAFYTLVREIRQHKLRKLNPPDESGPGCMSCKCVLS

Row | Compound | NRAS/KRAS (ratio of KD value for NRAS to KD value for KRAS) [1] | HRAS/KRAS (ratio of KD value for HRAS to KD value for KRAS) [2] | NRAS/KRAS (ratio of KD value with respect to GDP-bound NRAS wild-type protein to KD value with respect to KRAS) [1] | HRAS/KRAS (ratio of KD value with respect to GDP-bound HRAS wild-type protein to KD value with respect to KRAS) [2]
1 | C=CCCC[C@H]1C(=O)N[C@@H]([C@@H](C)CC)C(=O)N(C)CC(=O)N(C)[C@H]2CCCCCN(C2=O)[C@@H](Cc2ccc(C(F)(F)F)cc2)C(=O)N(C)CC(=O)N[C@@H](CCc2cc(F)c(C(F)(F)F)c(F)c2)C(=O)N2C[C@H](OCC)C[C@H]2C(=O)N[C@](C)(CC=C)C(=O)N(C)[C@@H](C2CCCC2)C(=O)N(C)[C@H](C(=O)N2CCOCC2)CC(=O)N1C [PP0880] | B (a compound having 3 or more and less than 10 is denoted as B) | B (a compound having 3 or more and less than 10 is denoted as B) | – | –
2 | CCO[C@@H]1C[C@H]2C(=O)NC3(CC(C)(C)C3)C(=O)N(C)[C@@H](C(CC)CC)C(=O)N(C)[C@H](C(=O)N(C)C)CC(=O)N(C)[C@@H](CC(C)C)C(=O)N[C@@H]([C@@H](C)CC)C(=O)N(C)CC(=O)N(C)[C@H]3C/C=C\CCN(C3=O)[C@@H](Cc3ccc(C)cc3)C(=O)N(C)CC(=O)N[C@@H](CCc3cc(F)c(C(F)(F)F)c(F)c3)C(=O)N2C1 [PP2141] | A (a compound having 10 or more and less than 20 is denoted as A) | A (a compound having 10 or more and less than 20 is denoted as A) | – | –
3 | CCC[C@H]1C(=O)N[C@@H]([C@@H](C)CC)C(=O)N(C2CC2)CC(=O)N(C)[C@H]2C/C=C\CCN(C2=O)[C@@H](Cc2ccc(C)cc2)C(=O)N(C)CC(=O)N[C@@H](CCc2ccc(C3CC3)c(F)c2)C(=O)N2C[C@H](OCC)C[C@H]2C(=O)NC2(CC(C)(C)C2)C(=O)N(C)[C@@H](C2CCCC2)C(=O)N(C)[C@H](C(=O)N(C)C)CC(=O)N1C [PP2884] | – | – | A (a compound having 10 or more and less than 20 is denoted as A) | A (a compound having 10 or more and less than 20 is denoted as A)
4 | CCC[C@H]1C(=O)N[C@@H]([C@@H](C)CC)C(=O)N(C)CC(=O)N(C)[C@H]2C/C=C\CCN(C2=O)[C@@H](Cc2ccc(C)cc2)C(=O)N(C)CC(=O)N[C@@H](CCc2ccc3c(C)cn(C)c3c2)C(=O)N2C[C@H](OCC)C[C@H]2C(=O)NC2(CC(C)(C)C2)C(=O)N(C)[C@@H](C(CC)CC)C(=O)N(C)[C@H](C(=O)N(C)C)CC(=O)N1C [PP2910] | – | – | AA (a compound having 20 or more is denoted as AA) | A (a compound having 10 or more and less than 20 is denoted as A)
5 | CCC[C@H]1C(=O)N[C@@H]([C@@H](C)CC)C(=O)N(C)CC(=O)N(C)[C@H]2C/C=C\CCN(C2=O)[C@@H](Cc2ccc(C(F)(F)F)cc2)C(=O)N(C)CC(=O)N[C@@H](CCc2ccc(CC)c(F)c2)C(=O)N2C[C@H](OCC)C[C@H]2C(=O)NC2(CC(C)(C)C2)C(=O)N(C)[C@@H](C2CCCC2)C(=O)N(C)[C@H](C(=O)N(C)C)CC(=O)N1C [PP2856] | – | – | A (a compound having 10 or more and less than 20 is denoted as A) | A (a compound having 10 or more and less than 20 is denoted as A)
6 | CCC[C@H]1C(=O)N[C@@H]([C@@H](C)CC)C(=O)N(C2CC2)CC(=O)N(C)[C@H]2C/C=C\CCN(C2=O)[C@@H](Cc2ccc(C)cc2)C(=O)N(C)CC(=O)N[C@@H](CCc2cc(F)c(Cl)c(OC)c2)C(=O)N2C[C@H](OCC)C[C@H]2C(=O)NC2(CC(C)(C)C2)C(=O)N(C)[C@@H](C2CCCC2)C(=O)N(C)[C@H](C(=O)N(C)C)CC(=O)N1C [PP2871] | – | – | A (a compound having 10 or more and less than 20 is denoted as A) | A (a compound having 10 or more and less than 20 is denoted as A)
7 | CCCOC[C@H]1C(=O)N[C@@H]([C@@H](C)CC)C(=O)N(C)CC(=O)N(C)[C@H]2C/C=C\CCN(C2=O)[C@@H](Cc2ccc(C)cc2)C(=O)N(C)CC(=O)N[C@@H](CCc2ccc(C(F)(F)F)c(OC)c2)C(=O)N2C[C@H](OCC)C[C@H]2C(=O)N(C)C2(CCC2)C(=O)N(C)[C@@H](C(CC)CC)C(=O)N(C)[C@H](C(=O)N(C)C)CC(=O)N1C [PP2323] | A (a compound having 10 or more and less than 20 is denoted as A) | A (a compound having 10 or more and less than 20 is denoted as A) | – | –
8 | CCC(CC)[C@H]1C(=O)N(C)[C@H](C(=O)N(C)C)CC(=O)N(C)[C@@H](COC)C(=O)N[C@@H]([C@@H](C)CC)C(=O)N(C)CC(=O)N(C)[C@H]2C/C=C\CCN(C2=O)[C@@H](Cc2ccc(C)cc2)C(=O)N(C)CC(=O)N[C@@H](CCc2ccc(C(F)(F)F)c(Cl)c2)C(=O)N2CC3(CC3)C[C@H]2C(=O)NC2(CC(C)(C)C2)C(=O)N1C [PP2967] | – | – | AA (a compound having 20 or more is denoted as AA) | A (a compound having 10 or more and less than 20 is denoted as A)
